Here are results for 4 compounds from patent US9085507B2, “Desfesoterodine in the form of a tartaric acid salt” (ratiopharm GmbH, priority 2009, dated 2015).

Structures can show the parent of a compound that is named as a salt.

The nature of series [1]: In vitro solubility behaviour. Format: physicochemical. The following applies: for In vitro solubility profile: compared with fesoterodine fumarate. The protocol: The in vitro solubility behaviour of fesoterodine fumarate (crystalline, commercially available), desfesoterodine fumarate in accordance with Comparative Example 1 and desfesoterodine tartrate in accordance with Example 1 of the invention was investigated:
Solubility behaviour scale: • poor: <20 mg/ml • average: 20 to 60 mg/ml • good: >60 to 80 mg/ml • very good: >80 mg/ml

A short description of series [2]: Stability on storage, stress test. Format: physicochemical. The protocol: Further, the stability on storage of desfesoterodine tartrate was determined in a stress test.
Series [3] has as its system overactive bladder syndrome. The settings on record: both phase III studies, over placebo; cited from earlier work.

Regarding `CC(C)N(CC[C@H](c1ccccc1)c1cc(CO)ccc1O)C(C)C` [Desfesoterodine fumarate, (R)-2-(3-diisopropylamino-1-phenylpropyl)-4-hydroxymethylphenol], the “In vitro solubility profile” value in series [1] was “substantially poorer in vitro solubility profile”. Besides, the “In vitro solubility behaviour” value in series [1] (pH 4.5) and in series [1] (pH 10) was “Poor” throughout.

Take `CC(C)N(CC[C@H](c1ccccc1)c1cc(CO)ccc1O)C(C)C` [Desfesoterodine tartrate, (R)-2-(3-diisopropylamino-1-phenylpropyl)-4-hydroxymethylphenol]: in series [1] (listed as desfesoterodine salt of the invention), the “In vitro solubility profile” value was “almost identical in vitro solubility profile to that of fesoterodine fumarate”. Further, the “In vitro solubility behaviour” value in series [1] (pH 4.5) and in series [1] (pH 10) was “Good” each time. In addition, the Stability on storage result in series [2] (aqueous solution, pH of 4.5) is “advantageous stability on storage”; in series [2] (aqueous solution, pH of 10), “advantageous stability on storage”; in series [2] (solid form) it was “advantageous stability on storage”.

Take `CC(C)C(=O)Oc1ccc(CO)cc1[C@H](CCN(C(C)C)C(C)C)c1ccccc1` [Fesoterodine, 2-[(1R)-3-(diisopropylamino)-1-phenylpropyl]-4-(hydroxymethyl)phenyl-isobutyrate]: in series [3], the “Clinically relevant outcomes (urge incontinence results/24 h, micturition frequency, median micturition volume)” value is on record as “statistically significant improvements”.

As for `CC(C)C(=O)Oc1ccc(CO)cc1[C@H](CCN(C(C)C)C(C)C)c1ccccc1` [Fesoterodine fumarate, 2-[(1R)-3-(diisopropylamino)-1-phenylpropyl]-4-(hydroxymethyl)phenyl-isobutyrate], the “In vitro solubility behaviour” value in series [1] (pH 4.5) and in series [1] (pH 10) was “Good” throughout.
